{"source": "patent US20240398775A1", "about": "“PHARMACEUTICAL COMPOSITION FOR USE IN TREATING COGNITIVE DECLINE OR FOR USE IN TREATING OVERWEIGHT OR OBESITY” (University of the Ryukyus, priority 2021, published 2024)", "format_in_all_cases": "in vivo, mouse", "key": {"MAP2, GluA1, GluA2, DCX": {"test_system": "MAP2, GluA1, GluA2, DCX", "assay": "Immunohistochemical analysis (MAP2, GluA1, GluA2, DCX) of hippocampus", "excerpt": "Mouse brains were perfusion-fixed with 4% paraformaldehyde, embedded in paraffin, and cut into 4 micrometer thick sections to be used for immunohistochemical analysis of monoclonal antibodies against DCX (E-6 monoclonal, 1:50, Santa Cruz Biotechnology Inc, Dallas, USA), MAP2ab (AP-20 monoclonal, 1:100, SIGMA-ALDRICH, St. Louis, USA), GluA1 ([…] polyclonal, 1:100, EMD Millipore Corp., Burlington, USA), and GluA2 (AB 1768-1 polyclonal, 1:5, EMD Millipore Corp., Burlington, USA).\nThe immunostained region in each of the expression regions of MAP2, GluA1, and GluA2 was acquired using a ZVI format AxioVision (Carl Zeiss, Germany) microscope (objective lens 20×). Generation of data image processing with image segmentation was performed using machine learning with ZEN Intelliesis software. 1000 or more cells were examined in each group. One-way variance analysis was used for testing variance among the three groups excluding data of 3SD or higher. Then, the following number of samples was used."}, "[1]": {"test_system": "dendritic arbors and spines of hippocampus", "assay": "Golgi staining of hippocampus", "conditions": "HFD mice with PER", "excerpt": "(§1) Coronal sections of mouse brains from Bregma-0.94 mm to Bregma-4.04 mm (5 mm wide, including the entire hippocampus from dorsal to ventral, medial to lateral) were fixed with 4% paraformaldehyde for 2 days, and then stained with the Golgi Cox staining system (FD Rapid GolgiStain™ Kit, MD 21041, USA). The impregnated tissues were cut into 100 μm sections and counterstained with crystal violet, and the total number of 15 μm spines on the apical dendrites of CA1 and DG and the percentage of morphologic spines (thin, stubby, mushroom) were examined using an Axio Observer Z1 (Carl Zeiss, Germany). Another set of paraformaldehyde-fixed 5 mm wide coronal sections of the brain, including the entire hippocampus, were processed using the passive CLARITY technique (PACT) (62) and examined through Lightsheet Z.1 (Carl Zeiss, Germany) using a 10× clear objective lens, and 3D images of Thy1-YFPH transgenic mice (the Jackson Laboratory, stock number: 003709, strain name: B6. Cg-Tg. (Thy1-YFP) 16Jrs/J) (63, 64), HFD-fed mice, and whole hippocampus of the HFD-fed mice with PER treatment. were acquired respectively. Maximum intensity projection images were acquired along the Z dimension, time dimension, and channel dimension to create an output image with the pixel containing the maximum value for all images in the stack at a particular pixel position. With the Z-stack function, a series of XY images at different focus positions can be acquired to create Z-stack. In this manner, a 3D dataset of 400 μm×400 μm was obtained from the specimens, dorsal to lateral and medial to lateral for each of CA1, CA3, and DG."}, "Aβ": {"test_system": "Aβ", "assay": "Aβ accumulation in hippocampus and cerebral cortex of NL-G-F(−/−) mice", "conditions": "perampanel 5 mg/kg from 6 to 15 weeks of age", "excerpt": "The effect of perampanel administration on Aβ accumulation in the hippocampal dentate gyrus (DG) CA1 and the cerebral cortex (Cx) in the Alzheimer's dementia model mouse (NL-G-F(−/−)) is shown. The X axis indicates the intensity of fluorescence, and the Y axis indicates the fluorescence count."}, "NL(−/−) mice": {"test_system": "NL(−/−) mice", "assay": "Bicculine-induced epileptiform reactions in NL(−/−) mice", "conditions": "perampanel administration", "excerpt": "Epilepsy occurs more frequently in AD patients than in the control population (Pascal E 2012), and the incidence of epilepsy increases to 7 to 21% (Amatniek et al., 2006; Hauser et al., 1986; Mendez and Lim, 2003) in sporadic AD patients and 30% in early-onset familial AD (FAD) (Palop and Mucke, 2009; Larner and Doran, 2006). Early latent hippocampal hyperexcitability was detected in AD patients (Lam A D et al., Nat Med 2017). […] In particular, in NL-G-F(−/−) mice (15 to 17 weeks old), significant enhancement of epileptiform reactions in the CA1 and CA2 regions was confirmed by Bicculine (BIC) (refer to FIG. 32). […] In an animal model of AD in which amyloid β is accumulated, it has been reported that an epileptiform reaction is enhanced (Busche, 2008; 2012). Also in this experiment, epileptic induction by bicrine was enhanced in both NL(−/−) mice and NL-G-F(−/−) (15 to 17 weeks old (W)) as compared with control mice."}, "[2]": {"test_system": "Thy-1+-eYFP neuronal cells", "assay": "Quantification of Thy1-eYFP neurons (CLARITY)", "conditions": "HFD mice treated with PER, p<0.001, n=4", "excerpt": "as §1, with “With the Z-stack function, a series of XY images at different focus positions can be acquired to create Z-stack. In this manner, a 3D dataset of 400 μm×400 μm was obtained from the specimens, dorsal to lateral and medial to lateral for each of CA1, CA3, and DG.” left out"}}}
{"smiles": "N#Cc1ccccc1-c1cc(-c2ccccn2)cn(-c2ccccc2)c1=O", "note": "[PER, 3-(2-cyanophenyl)-5-(2-pyridyl)-1-phenyl-1,2-dihydropyridine-2-one]", "values": [{"measurement": "integrity of dendritic arbors in CA1 (anti-MAP2 antibody staining)", "setting": "MAP2, GluA1, GluA2, DCX; HFD mice with PER", "result": "completely restored"}, {"measurement": "GluA2/GluA1 ratio (immunostaining)", "setting": "MAP2, GluA1, GluA2, DCX; HFD mice with PER treatment", "result": "increased"}, {"measurement": "immunostaining reaction of GluA1 in CA1", "setting": "MAP2, GluA1, GluA2, DCX; HFD mice with PER treatment", "result": "decreased"}, {"measurement": "double cortin positive cells", "setting": "MAP2, GluA1, GluA2, DCX; HFD mice with PER, DG", "result": "increase"}, {"measurement": "GluA1 expression in CA1 (immunoreactive region)", "setting": "MAP2, GluA1, GluA2, DCX; ob/ob mice with PER", "result": "restored"}, {"measurement": "ratio of GluA2/GluA1 (immunoreactive region)", "setting": "MAP2, GluA1, GluA2, DCX; ob/ob mice with PER", "result": "restored"}, {"measurement": "integrity of the dendritic arbors (MAP2 staining)", "setting": "MAP2, GluA1, GluA2, DCX; ob/ob mice, PER for 1 week or 12 weeks", "result": "significantly more restored by 12 week administration than by 1 week administration"}, {"measurement": "maturation of the protrusions of DCX-positive cells", "setting": "MAP2, GluA1, GluA2, DCX; ob/ob mice, PER for 12 weeks", "result": "progressed"}, {"measurement": "Golgi staining positive cells in DG", "setting": "[1]", "result": "restored"}, {"measurement": "integrity of dendritic arbors in CA1 (Golgi staining)", "setting": "[1]", "result": "restored"}, {"measurement": "spine maturation in DG", "setting": "[1]", "result": "immature spines became mature"}, {"measurement": "Aβ accumulation in DG, CA1 and cerebral cortex", "setting": "Aβ", "result": "decrease in Aβ accumulation"}, {"measurement": "epileptiform reactions induced by bicculine", "setting": "NL(−/−) mice", "result": "almost completely abolished"}, {"measurement": "number of Thy-1+-eYFP neuronal cells in CA3", "setting": "[2]", "result": "significantly restored"}]}
